Data from ChEMBL document CHEMBL3507680, “University of Dundee, Gates Library screen for HepG2 cell viability”.

assay: Human HepG2 cell viability assay in 384 well format; format: toxicity, cell-based; set-up: dose 125 nL, time 70.5 hour; concentration not given beside the values; conditions: HepG2 cells, read-out: Inhibition

Row | SMILES | cytotoxicity at 70.5 h [%]
1 | Cc1ccsc1CN(C)C(=O)c1ccc(N2CCOCC2)c(F)c1 | -7.5
2 | COCC(=O)N1CCN(CC2CC2)c2ncccc2C1 | 15.5
3 | O=C1NCCN1C1CCN(c2ccnc(-c3ccccc3)n2)CC1 | -7.99
4 | Cn1cc(CCCNC(=O)NCC(O)c2ccsc2)cn1 (centres undefined) | -2.64
5 | NC(=O)COc1cccc(C(=O)NCc2ccc(Cl)s2)c1 | -11.8
6 | C[C@@H]1CN(C(=O)CCN2CCCC2)CC[C@@]1(O)C1CCC1 | 1.37
7 | Cc1cccc(NC(=O)N2CC(C(=O)NC(C)C)C3(CCOCC3)C2)c1 (centres undefined) | 9.15
8 | O=C(C[S+]([O-])Cc1ccccc1F)N1CCc2sccc2C1 (centres undefined) | -7.21
9 | COc1ccc(CNC(C)c2ccc3[nH]c(=O)[nH]c3c2)cc1 (centres undefined) | -2.85
10 | CCCc1cncnc1N1CCC2(CCC(=O)N(C3CCCC3)C2)CC1 | -12.7
11 | CC(C)[C@H]1CN(C(=O)CO)C[C@@H]1N(C)C | -13.8
12 | O=c1ccc2c(n1CC1CC1)CCN(c1ncccn1)CC2 | -4.49
13 | CN(C)Cc1nc(C2(NC(=O)Nc3ccccc3)CCCC2)no1 | -12.8
14 | CCOCC1CN(Cc2ccccn2)Cc2nn(CC3CC3)cc21 (centres undefined) | -4.99
15 | c1ncn(CC2CCCCN2Cc2csc(-c3ccsc3)n2)n1 (centres undefined) | -7.71
16 | O=C(Nc1cccnc1)NC(CCCO)c1ccccc1 (centres undefined) | -16
17 | NC(=O)CCCNC(=O)c1cc(Br)c2c(c1)OCCO2 | -10.4
18 | O=C(O)c1ccccc1-c1ccc(CN2CCC(CO)C2)cn1 (centres undefined) | 15.8
19 | OC1CCCN(Cc2c(-c3ccco3)[nH]c3ncccc23)C1 (centres undefined) | -4.41
20 | CN(C)C(=O)CNC(CC(F)(F)F)c1ccc(Cl)cc1 (centres undefined) | 0.0833
21 | CCC(=O)N1CCC2(CC1)c1nc[nH]c1CCN2S(C)(=O)=O | -4.48

Row | SMILES | cytotoxicity at 70.5 h [%]
22 | O=S(=O)(CC1CCCCO1)Nc1cc(F)ccc1-n1cccn1 (centres undefined) | 9.49
23 | CCC(C)NC(=O)CCNC(=O)c1c[nH]cc1-c1cccc(OC)c1 (centres undefined) | 2.46
24 | COC(=O)CCn1ccc(=O)c2cc(F)ccc21 | -8.87
25 | CCN(CCNC(=O)c1ccccc1Br)C1CC1 | -3.52
26 | O=C(NCC1CCOC1)c1ccc(-c2ccccc2)[nH]c1=O (centres undefined) | -7.11
27 | CCOc1cc2c(cc1CN1CCC3(CC1)CNC(=O)C3)CCC2 | 23.3
28 | COCCN1CCc2ncnc(OC(C)C)c2CC1 | -9.41
29 | COc1ccc(CC(=O)N2CCCC(Cn3cc(CN)nn3)C2)cc1 (centres undefined) | -4.47
30 | CCN1CCN(c2cncc(Cl)n2)CC1 | 26.6
31 | c1ccc(NCCn2cc(C3CCCNC3)nn2)cc1 (centres undefined) | -3.12
32 | CCCn1cc(C(=O)N2CCCC2(C)c2nc(C)cc(C)n2)cn1 (centres undefined) | -13.9
33 | Cn1cc(CNC(=O)Nc2ccc(S(=O)(=O)C(F)F)cc2)cn1 | 0.531
34 | O=C(NCC1CCC1)c1ccnc(-n2ccnc2)c1 | 1.75
35 | CN(CC(=O)NCC(C)(C)c1ccc2c(c1)OCO2)c1cnccn1 | -12.3
36 | O=C(c1ccccn1)N1C[C@@H]2CC[C@H](C1)N(C(=O)c1ccsc1)C2 | 26.5
37 | CCCc1[nH]n(C)c(=N)c1-c1ccc2c(c1)OCO2 | -3.98
38 | COc1c(C)cnc(CSc2nnc(C)s2)c1C | -5.43
39 | Cc1cncc(C(=O)N2CCCCC2c2nc[nH]n2)c1 (centres undefined) | -4.36
40 | Cc1cnccc1NCCNC(=O)[C@H]1CNC[C@H](C(=O)N2CCCC2)C1 | -4.18
41 | O=C1CCC2(CCCN(C(=O)c3ccc[nH]3)C2)CN1Cc1cccnc1 (centres undefined) | -3.97
42 | CNCc1cn(CC2CCN(Cc3cccs3)CC2)nn1 | 22.5

Row | SMILES | cytotoxicity at 70.5 h [%]
43 | O=C1CC2(CCN(CC3CCOC3)CC2)c2ccccc2N1CC1CC1 (centres undefined) | -1.14
44 | Cc1nn(C)c(Cl)c1C1CCCN1C(=O)c1ccnc(N(C)C)c1 (centres undefined) | -2.23
45 | CC(=O)N1CCC2(CC1)CN(C(=O)c1cccc3[nH]ccc13)CCO2 | 27.3
46 | C=C(C)COc1cccc(CN(CC)Cc2noc(C)n2)c1 | -0.0989
47 | O=C(NCCOc1ccc2c(c1)OCO2)N1CCC1 | -12.5
48 | Cc1ccccc1-n1cc(CNC(=O)CC2C(=O)NCCN2C)cn1 (centres undefined) | -1.91
49 | COc1ccc(CNC(=O)NCc2ccc(C(N)=O)cc2)cn1 | -2.22
50 | c1cc(CCNc2ccc(CC3CCNC3)cn2)ccn1 (centres undefined) | -4.08
51 | Cc1nc[nH]c1CN1CCn2nc(CN3CC[C@H](F)C3)cc2C1 | -8.01
52 | COc1ccc(Cc2noc(-c3ccc(NC(C)CO)nc3)n2)cc1 (centres undefined) | 3.07
53 | CC(C)[C@@H]1CN(Cc2ccccn2)C[C@H]1NS(=O)(=O)N(C)C | -0.239
54 | CCc1nc(CN(C)C2CCN(CCOc3ccccc3)C2)no1 (centres undefined) | 0.0512
55 | COc1cccc(OCCNCc2ccccc2)c1 | -7.2
56 | Cc1cnn(CCNCc2c(C)nn(-c3ccccc3)c2C)c1 | 2.45
57 | NC(=O)c1nc2c(s1)CCN(C(=O)Nc1cccc(Cl)c1)CC2 | 7.06
58 | CC(NCCn1cccn1)c1ccccc1Cl (centres undefined) | 10.3
59 | CN(CCCc1cc(-c2cccc(F)c2)n[nH]1)C(=O)CCn1cncn1 | -13.6
60 | Cc1noc(C)c1CN1CCO[C@H]2CN(Cc3nccn3C)C[C@H]21 | 0.477
61 | CC(C)(C)CCNC(=O)c1ccc(Cl)c(NS(C)(=O)=O)c1 | 8.13
62 | CC(C)c1cc2c(s1)NC(c1ccccc1)NC2=O (centres undefined) | -12.1
63 | COCCCN1CCCC1c1noc(C2CC2)n1 (centres undefined) | 23.8

Row | SMILES | cytotoxicity at 70.5 h [%]
64 | Cc1ccc2c(c1)N(C(=O)c1c[nH]c(C)cc1=O)CC(C)O2 (centres undefined) | 28.6
65 | NC(=O)c1cccc(CCNC(=O)N2CCCC2)c1 | -8
66 | Cc1csc(C(C)(C)NCCNS(C)(=O)=O)n1 | 18.5
67 | FC(F)(F)Oc1ccc(CN2CCCC(n3cncn3)C2)cc1 (centres undefined) | -10.6
68 | CCOc1ccccc1-c1noc(CN(C)Cc2cnn(C)c2)n1 | 2
69 | CC(NCc1cnc(C2CCC2)s1)c1ccc(-n2cncn2)cc1 (centres undefined) | -5.3
70 | CCc1cc(CN(C)C(=O)c2cnn[nH]2)on1 | -9.04
71 | CCCN(CCS(C)(=O)=O)C1CCc2ccccc2C1 (centres undefined) | -0.462
72 | O=C(c1ccncc1)N1CCn2c(nnc2-c2ccccc2)C1 | -6.68
73 | COCC1CN(Cc2c(C)noc2C)Cc2ccnn2C1 (centres undefined) | -9.74
74 | CCC[C@H]1CN(S(=O)(=O)c2c(C)noc2C)C[C@@H]1N | -3.53
75 | COc1cc(CN2CCCCCC2c2cccs2)cc(OC)c1O (centres undefined) | -2.15
76 | C/C(=C\c1ccccc1)CN1CCCC(c2nnc3n2CCNCC3)C1 (centres undefined) | -6.58
77 | CN(C)C(=O)CCN1CC(c2ccccc2)(c2ccccc2)CCC1=O | 4.06
78 | CCOC(=O)CSc1nnc(C(N)CC(C)C)o1 (centres undefined) | -7.86
79 | c1ncn(CC2CN(CC3CCCCC3)CCO2)n1 (centres undefined) | 2.16
80 | Cc1cnc(CN(C)C2CCN(CCCc3ccccc3)C2)o1 (centres undefined) | 10
81 | NC(=O)CCn1cc(CNCCCc2csc(N)n2)c2ccccc21 | -6.3
82 | O=C(c1scc2c1OCCO2)N1CCOC(Cc2cccc(F)c2)C1 (centres undefined) | -5.83
83 | Cc1cnc(CN2CCC(N(C)Cc3nnc(C)n3C)C2)cn1 (centres undefined) | -0.164
84 | O=C(c1ccco1)N1CCCC(c2cc(C(F)(F)F)[nH]n2)C1 (centres undefined) | -7.38
